{
  "source": "ChEMBL document CHEMBL3120136",
  "about": "(J Med Chem, 2014)",
  "key": {"[1]": {"test": "Ratio of EC50 for Hepatitis C virus infected in human HuH7 cells to IC50 for Hepatitis C virus full-length NS3/4A protease", "set-up": "species or system Huh-7"}, "Hepatitis C virus": {"system": "Hepatitis C virus", "test": "Antiviral activity against Hepatitis C virus infected in human HuH7 cells assessed as inhibition of HCV subgenomic replicon replication after 72 hrs by ELISA", "type": "functional, organism-based, Hepacivirus hominis, Huh-7", "settings": "Hepatitis C virus, Huh-7, 72 h; read-out: EC50"}, "[2]": {"test": "Inhibition of Hepatitis C virus full-length NS3/4A protease assessed as quenched-fluorogenic RET-S1 substrate cleavage incubated for 10 mins prior to substrate addition by FRET analysis", "set-up": "species or system Hepacivirus hominis"}, "Liver": {"system": "Liver", "test": "Ratio of AUC (0 to 24 hrs) in liver to plasma in Sprague-Dawley rat at 30 mg/kg, po by HPLC-MS/MS analysis", "type": "ADME, organism-based", "set-up": "dose 30 mg/kg, route oral", "settings": "other tissue"}, "[3]": {"test": "AUC (0 to 24 hrs) in Sprague-Dawley rat plasma at 30 mg/kg, po by HPLC-MS/MS analysis", "type": "ADME, organism-based", "set-up": "time < 24 hr, dose 30 mg/kg, route oral"}, "[4]": {"test": "AUC (0 to 24 hrs) in Sprague-Dawley rat liver at 30 mg/kg, po by HPLC-MS/MS analysis", "type": "ADME, organism-based", "set-up": "time < 24 hr, dose 30 mg/kg, route oral"}, "[5]": {"test": "Plasma clearance in rat assessed as extraction ratio", "type": "ADME, organism-based", "settings": "read-out: ERH"}, "[6]": {"test": "Efflux ratio of permeability from basolateral to apical side over apical to basolateral side in human Caco2 cells", "type": "ADME, cell-based", "settings": "Caco-2"}, "[7]": {"test": "Permeability from apical to basolateral side of human Caco2 cells", "type": "ADME, cell-based", "settings": "Caco-2, read-out: permeability"}, "[8]": {"test": "Aqueous solubility of the compound at pH 6.5 by modified shake-flask method", "type": "physicochemical"}, "[9]": {"test": "Aqueous solubility of the compound at pH 7.4 by modified shake-flask method", "type": "physicochemical"}, "[10]": {"test": "Aqueous solubility of the compound at pH 1.2 by modified shake-flask method", "type": "physicochemical"}, "[11]": {"test": "Metabolic stability in dog hepatocytes assessed as extraction ratio at 1 uM", "type": "ADME, cell-based, Canis lupus familiaris, Hepatocyte", "settings": "read-out: ERH"}, "[12]": {"test": "Metabolic stability in cynomolgus monkey hepatocytes assessed as extraction ratio at 1 uM", "type": "ADME, cell-based, Macaca fascicularis, Hepatocyte", "settings": "read-out: ERH"}, "[13]": {"test": "Metabolic stability in human hepatocytes assessed as extraction ratio at 1 uM", "type": "ADME, cell-based, Hepatocyte", "settings": "read-out: ERH"}, "[14]": {"test": "Metabolic stability in rat hepatocytes assessed as extraction ratio at 1 uM", "type": "ADME, cell-based, Hepatocyte", "settings": "read-out: ERH"}, "[15]": {"test": "Lipophilicity, log D of the compound", "type": "physicochemical", "settings": "octanol/water"}, "[16]": {"test": "Ratio of drug level in liver to plasma in Sprague-Dawley rat at 30 mg/kg, po by HPLC-MS/MS analysis", "type": "ADME, organism-based", "set-up": "dose 30 mg/kg, route oral", "settings": "liver and plasma"}, "Rattus norvegicus": {"system": "Rattus norvegicus", "test": "Volume of distribution at steady state in Sprague-Dawley rat at 1 mg/kg, iv by HPLC-MS/MS analysis", "settings": "in vivo"}},
  "data": [
    {"molecule": "CC(C)(C)OC(=O)N[C@H]1CCCCC/C=C\\[C@@H]2C[C@@]2(C(=O)O)NC(=O)[C@@H]2C[C@@H](OC(=O)N3CCc4ccccc4C3)CN2C1=O", "values": [
      {"measurement": "Ratio", "setting": "[1]", "value": 10},
      {"measurement": "EC50", "setting": "Hepatitis C virus", "value": 2350, "unit": "nM"},
      {"measurement": "IC50", "setting": "[2]", "value": 177, "unit": "nM"}
    ]},
    {"molecule": "CC(C)(C)OC(=O)N[C@H]1CCCCC/C=C\\[C@@H]2C[C@@]2(C(=O)NS(=O)(=O)C2CC2)NC(=O)[C@@H]2C[C@@H](OC(=O)N3CCc4ccccc4C3)CN2C1=O", "values": [
      {"measurement": "EC50", "setting": "Hepatitis C virus", "value": 17.5, "unit": "nM"},
      {"measurement": "IC50", "setting": "[2]", "value": 2.2, "unit": "nM"},
      {"measurement": "Ratio AUC", "setting": "Liver", "value": 4608},
      {"measurement": "AUC(0-t) at 24 h", "setting": "[3]", "value": 0.06, "unit": "µg·h/mL"},
      {"measurement": "AUC(0-t) at 24 h", "setting": "[4]", "value": 276, "unit": "µg·h/mL"},
      {"measurement": "hepatic extraction ratio", "setting": "[5]", "value": "> 1"},
      {"measurement": "efflux ratio", "setting": "[6]", "value": "> 2"},
      {"measurement": "Papp A→B", "setting": "[7]", "value": "< 2", "unit": "×10⁻⁶ cm/s"},
      {"measurement": "solubility thermodynamic", "setting": "[8]", "value": 812, "unit": "µg/mL"},
      {"measurement": "solubility thermodynamic", "setting": "[9]", "value": "> 1000", "unit": "µg/mL"},
      {"measurement": "solubility thermodynamic", "setting": "[10]", "value": 0.5, "unit": "µg/mL"},
      {"measurement": "hepatic extraction ratio at 1 µM", "setting": "[11]", "value": 0.36},
      {"measurement": "hepatic extraction ratio at 1 µM", "setting": "[12]", "value": 0.53},
      {"measurement": "hepatic extraction ratio at 1 µM", "setting": "[13]", "value": 0.49},
      {"measurement": "hepatic extraction ratio at 1 µM", "setting": "[14]", "value": 0.05},
      {"measurement": "logD", "setting": "[15]", "value": 2.2},
      {"measurement": "Kp", "setting": "[16]", "value": "> 1000"},
      {"measurement": "Vdss", "setting": "Rattus norvegicus", "value": 5.982, "unit": "L/kg"}
    ]}
  ]
}
